According to patent US9505834B2, “Methods for controlling the galactosylation profile of recombinantly-expressed proteins” (AbbVie Inc., priority 2011, dated 2016):

Experiments:
[1] = system: adalimumab-producing CHO cell line; assay: Example 2 culture growth & productivity, HyClone CDM4CHO; assay type: cell-based, Chinese Hamster; conditions: galactose 0 to 40 mM and/or manganese chloride up to 10 μM
Procedure: (§1) For all studies with CHO cell lines described throughout this invention, samples were collected daily and measured for cell density and viability using a Cedex cell counter. Retention samples for titer analysis via Poros A method were collected by centrifugation at 12,000 RPM for 5 min when the culture viability began declining. The cultures were harvested by collecting 125 mL aliquots and centrifuging at 3,000 RPM for 30 min when culture viability was near or below 50%. All supernatants were stored at −80° C. until analysis.
Growth and production media for the adalimumab-producing CHO cell line were prepared using Thermo Scientific HyClone chemically defined media CDM4CHO without L-glutamine (Catalogue #SH30558.02). […] All media were filtered through Corning 0.5 L or 1 L (0.22 μm PES) filter systems and stored at 4° C. until use.
(§2) Upon thaw, cells were adapted to and expanded in HyClone CDM4CHO media for 5 (2 to 3 day each) passages in a combination of 250 mL, 500 mL, and 1000 mL Corning vented non-baffled shake flasks. Production cultures were initiated in duplicate 500 mL Corning vented non-baffled shake flasks (200 mL working volume) at an initial VCD of approximately 0.5×10^6 cells/mL. Cultures were maintained on orbital shakers at 110 RPM in a dry incubator at 35° C. and 5% CO2. […]

[2] = system: CHO cell line producing mAb #1; assay: Example 7 oligosaccharide analysis, CDM GIA-1, batch shake flasks; assay type: cell-based, Chinese Hamster
Procedure: as §1
(§3) For all studies, the harvest samples were Protein A purified and prepared for the oligosaccharide assay using the following procedures. As a first step in the process of establishing the identity and quantifying the oligosaccharides, they are released from the protein by enzymatic digestion with N-glycanase. Once the glycans are released, the free reducing end of each glycan is labeled by reductive amination with a fluorescent tag, 2-aminobenzamide (2-AB). The resulting labeled glycans are separated by normal-phase HPLC (NP-HPLC) in acetonitrile: 50 mM ammonium formate, pH 4.4, and detected by a fluorescence detector. Quantitation is based on the relative area percent of detected sugars. Throughout this invention, the relative area percentages of the agalactosyl fucosylated biantennary oligosaccharides, denoted as NGA2F+NGA2F-GlcNAc sum, and the galactose-containing fucosylated biantennary oligosaccharides NA1F+NA2F sum are reported and discussed.
Growth and production media for the CHO cell line producing mAb #1 were prepared using a proprietary Life Technologies Gibco chemically defined media, GIA-1. […] All media were filtered through Corning 0.5 L or 1 L filter systems (0.22 μm PES) and stored at 4° C. until use.
as §2, with “were” for “were adapted to and”, “expanded” for “expanded in HyClone CDM4CHO media”, “6 (3” for “5 (2 to 3”, “125” for “110”, “CO2. A glucose solution (1.25% (v/v) of 40% solution) was fed when the media glucose concentration fell below 3 g/L.” for “CO2.”

[3] = system: adalimumab-producing CHO cell line; assay: Example 1 culture growth & productivity, batch shake flasks; assay type: cell-based, Chinese Hamster; conditions: galactose 0 to 100 mM and/or manganese chloride up to 80 μM
Procedure: All supernatants were stored at −80° C. until analysis. […] Culture growth, productivity, and product quality data for control cultures is the average of the 3 experiments.

[4] = system: CHO cell line producing mAb #2; assay: Example 8 oligosaccharide analysis, CDM GIA-1, fed-batch 3 L bioreactors; assay type: cell-based, Chinese Hamster
Procedure: as §1, §3
Growth and production media for the mAb #2 producing CHO cell line were prepared using the proprietary Life Technologies Gibco chemically defined media, GIA-1.
Upon thaw, cells were expanded in Corning vented non-baffled shake flasks maintained on orbital shakers at 140 RPM, and in 10 L cell bags (2 L working volume) maintained at 25 RPM, 7° angle, 0.25 SLPM airflow in a dry incubator at 36° C. and 5% CO2. Production cultures were initiated in 3 L bioreactors (1.5 L initial working volume) at 36° C., 25% dissolved oxygen, 200 RPM, and pH 7.0. The chemically-defined feed from Life Technologies Gibco JCL-5 was added as follows: 3% (v/v)—day 3, 5%—day 5, 7%—day 7, 10%—day 9, and 10%—day 11. […] Bioreactors were harvested at viability of approximately 70% or below or on production day 15, whichever condition occurred first.
Galactose was supplemented at 0, 15, 30, and 60 mM concentrations in both production and feed media.

[5] = system: adalimumab-producing NSO cell line; assay: Example 6 culture growth & productivity; assay type: cell-based; conditions: for culture growth and viability profiles: galactose 0 to 5 mM and/or manganese chloride up to 0.5 μM
Procedure: Growth and production media for the adalimumab-producing NSO cell line were prepared using a proprietary Life Technologies Gibco chemically defined media, PFBM-3 basal medium plus PFFM-4 feed medium.
Upon thaw, cells were expanded for 3 to 5 (2 days each) passages in a combination of 250 mL, 500 mL, 1 L, 2 L and 3 L Corning vented non-baffled shake flasks. Production cultures were initiated in single 1 L Corning vented non-baffled shake flasks (240 mL initial working volume) at an initial VCD of approximately 2.5×10^5 cells/mL. Cultures were maintained on orbital shakers at 100 RPM in a dry incubator at 37° C. and 5% CO2. The shake flask study was run in a fed-batch mode and the culture was fed PFFM-4 as follows: 24 mL—day 2, 28.8 mL—day 4, 28.8 mL—day 6, and 28.8 mL—day 8.
Samples were collected every 2 days and measured for cell density and viability using a Cedex cell counter. Retention samples for titer analysis via Poros A method were collected daily beginning on Day 8 by centrifugation at 2,000 g for 10 min and then filtered through 0.2 μm PVDF syringe filter. The cultures were harvested on production day 10. The entire culture was collected, chilled on ice to approximately 0° C. for 1.5 hours, the cells and debris flocculated at pH 5.0 by the addition of 1M citric acid and held for 15 minutes, and centrifuged at 4000x g for 15 min at 5° C. The supernatant was passed through 0.20 μm Millipore Stericup PES filters, and, immediately post filtration, the acidified clarified cell-free harvest was neutralized with 2M Tris to pH 7.1±0.2. The cell free harvest was transferred to PETG bottles and stored at −80° C. until analysis.
Galactose was supplemented at the following levels in both production and feed media: 0, 1, 4, 5, and 10 mM.

[6] = manganese chloride alone, range 0 to 40 μM
[7] = manganese chloride alone, range 0 to 75 μM

Molecule	cell growth and viability profiles [1]	decrease in the NGA2F+NGA2F-GlcNac sum ([2]; 40 mM galactose alone) [%]	maximum decrease in the NGA2F+NGA2F-GlcNac sum ([2]; galactose alone up to 40 mM) [%]	maximum increase in the NA1F+NA2F sum ([2]; galactose alone up to 40 mM) [%]	cell growth and viability profiles [3]	decrease in the NGA2F+NGA2F-GlcNac sum ([4]; 15 mM galactose alone) [%]	decrease in the NGA2F+NGA2F-GlcNac sum ([4]; 30 mM galactose alone) [%]	maximum decrease in the NGA2F+NGA2F-GlcNac sum ([4]; galactose alone up to 60 mM) [%]	maximum increase in the NA1F+NA2F sum ([4]; galactose alone up to 60 mM) [%]	culture growth and viability profiles [5]	effect on culture growth and productivity ([5]; galactose 10 mM)	harvest titer lower than control condition ([5]; galactose 10 mM) [%]	decrease in the NGA2F+NGA2F-GlcNac sum ([2]; 40 μM manganese chloride alone) [%]	maximum decrease in the NGA2F+NGA2F-GlcNac sum [2, 6] [%]	maximum increase in the NA1F+NA2F sum [2, 6] [%]	decrease in the NGA2F+NGA2F-GlcNac sum ([4]; 25 μM manganese chloride alone) [%]	decrease in the NGA2F+NGA2F-GlcNac sum ([4]; 50 μM manganese chloride alone) [%]	maximum decrease in the NGA2F+NGA2F-GlcNac sum [4, 7] [%]	maximum increase in the NA1F+NA2F sum [4, 7] [%]
O=C[C@H](O)[C@@H](O)[C@@H](O)[C@H](O)CO [galactose, D(+)Galactose]	comparable to the control cultures	12	12	13	comparable to control cultures	7	12	12	11	comparable to the control condition	detrimental effect on culture growth and productivity	60	–	–	–	–	–	–	–
Manganese (II) Chloride [manganese chloride]	comparable to the control cultures	–	–	–	comparable to control cultures	–	–	–	–	comparable to the control condition	–	–	20	26	27	10	18	18	16
